Target: T1, bovine β-cardiac myosin S1 fragment (cardiac myosin, MYH7) (Bos taurus, UniProt Q9BE39)
T1 construct: Subfragment-1 (S1), AA 1–840; with MYL3 (Uniprot P85100)
Assay: ITC; crystal structure at […] Å; SAXS
Format: binding
Settings: read-out: Nucleotide state / ADP-VO4 (n = 5)

T1 sequence (Q9BE39 1-840): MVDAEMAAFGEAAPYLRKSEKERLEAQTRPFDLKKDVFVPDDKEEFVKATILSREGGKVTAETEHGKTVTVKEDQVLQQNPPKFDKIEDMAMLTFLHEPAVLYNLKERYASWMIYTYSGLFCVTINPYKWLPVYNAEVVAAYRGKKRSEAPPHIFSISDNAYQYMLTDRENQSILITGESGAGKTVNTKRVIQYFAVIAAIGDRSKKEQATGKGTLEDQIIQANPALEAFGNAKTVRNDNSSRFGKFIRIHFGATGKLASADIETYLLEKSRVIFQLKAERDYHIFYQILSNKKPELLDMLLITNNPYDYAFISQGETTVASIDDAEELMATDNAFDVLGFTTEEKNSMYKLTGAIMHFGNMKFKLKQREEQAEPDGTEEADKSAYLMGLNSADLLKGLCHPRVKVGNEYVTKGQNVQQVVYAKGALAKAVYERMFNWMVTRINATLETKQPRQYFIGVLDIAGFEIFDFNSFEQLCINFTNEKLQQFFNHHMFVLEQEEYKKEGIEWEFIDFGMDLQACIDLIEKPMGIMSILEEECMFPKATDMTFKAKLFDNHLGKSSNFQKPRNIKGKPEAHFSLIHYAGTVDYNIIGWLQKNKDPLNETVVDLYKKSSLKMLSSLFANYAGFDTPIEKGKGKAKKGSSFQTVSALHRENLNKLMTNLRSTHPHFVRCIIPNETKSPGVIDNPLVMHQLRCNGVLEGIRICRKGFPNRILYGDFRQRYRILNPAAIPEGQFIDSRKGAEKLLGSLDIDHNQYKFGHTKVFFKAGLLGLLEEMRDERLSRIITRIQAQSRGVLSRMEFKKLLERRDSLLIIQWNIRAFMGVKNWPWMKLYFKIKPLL
T1 sequence (P85100 2-199 partner): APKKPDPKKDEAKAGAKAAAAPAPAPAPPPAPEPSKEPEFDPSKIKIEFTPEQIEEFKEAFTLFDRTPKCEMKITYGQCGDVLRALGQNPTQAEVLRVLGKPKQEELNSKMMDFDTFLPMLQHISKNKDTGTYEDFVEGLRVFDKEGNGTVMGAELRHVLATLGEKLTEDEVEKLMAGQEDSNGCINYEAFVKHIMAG

Kd: 290 ± 40 nM
SMILES: COC(=O)N1CCN(Cc2cccc(NC(=O)Nc3ccc(C)nc3)c2F)CC1 [OM, Omecamtiv mecarbil]

— paper PMC5543065, “Mechanistic and structural basis for activation of cardiac myosin force production by omecamtiv mecarbil” (Nature Communications, 2017)
